Experimental findings from patent publication US8466131B2, “Ligands specific for cannabinoid receptor subtype 2” (University of Pittsburgh—of the Commonwealth System of …, priority 2007, dated 2013) are described below.

pKi: −log10 of the molar value. Entries after “also recorded” stand apart in the source; their conditions may differ.

The target of one assay is T1, CB2 cannabinoid receptor (Mus musculus, UniProt P47936).
T1 construct: from tissue; host or cells: frozen mouse spleen membranes
As to the kind of experiment: [3H]-CP-55,940 radiometric competition binding assay, CB2 (mouse spleen membrane). As to conditions: displacement of 3H-CP 55940, mouse spleen membrane; read-out: CB2 binding affinity (Ki). Here is the method:
(§1) In-vitro Bio-validation Experiment. To biologically validate the screened hit compounds above, in-vitro [^3H]-radioactive CB ligand binding assays were carried out to determine the CB receptor binding affinity (Ki) of the screened ligands by displacing [^3H]-CP-55,940. The compound of Formula II was obtained from National Cancer Institute (NCI). For each assay, a positive control with a known ligand (SR-141716A for CB1 and SR-144528 for CB2) was run to ensure the reliability of the assay.
For CB2 receptor binding studies, membranes were prepared from frozen mouse spleen. […]
(§2) The experiments were conducted based on reported procedures. […] 1999, 1(3):article 4; Abadji et al., J. Med. Chem. 1994, 37(120:1889-1893; and Abadji et al., J. Neurochem. 1999, 72(5):2032-38. Thus, the competition binding assay was performed using [3H]-CP-55,940 (1 nM) as a radioligand for the CB1 or CB2 cannabinoid receptor (rate brain or mouse spleen membranes), at 30° C. in 96-well microtiter plates, 50 μg of membrane each well re-suspended in 200 μl (final volume) binding buffer (50 mM Tris-HCl, 2.5 mM EGTA, 3 mM MgCl2, 0.1% bovine serum albumin, pH 7.4). The tested compounds were presented at varying concentrations, and the nonspecific binding was determined in the presence of 10 μM CP-55,940 or HU-210. […] The Ki values were calculated by using GraphPad Prism 5.0 (GraphPad Software, Inc.).

In the next assay the target is T2, CB1 cannabinoid receptor (Rattus norvegicus, UniProt P20272).
T2 construct: from tissue; host or cells: rat forebrain membranes
The assay is described as follows: [3H]-CP-55,940 radiometric competition binding assay, CB1 (rat forebrain membrane). The following applies: displacement of 3H-CP 55940, rat forebrain membrane; read-out: CB1 binding affinity (Ki). Here is the method:
as §1
For CB1 receptor binding studies, rat forebrain membranes were prepared following the reported procedures. […]
as §2

In a further assay the target is T3, CB2 receptor (Homo sapiens, UniProt P34972).
T3 construct: expressed in transfected cells; host or cells: CHO-K1
As to the kind of experiment: forskolin-stimulated cAMP assay in CB2 receptor transfected CHO-K1 cells. The assay is classed as cell-based. As to conditions: for effect on CB2 agonist WIN55,212-2 response (cAMP): 1 μM antagonist, with increasing WIN55,212-2, 30 min prior to forskolin (20 μM), FIG. 2; for functional mode of ligand alone (cAMP): ligand alone at increasing concentrations 30 min prior to forskolin (20 μM), FIG. 3. Here is the method: FIG. 2. Confluentially growing CB2 receptor transfected […] CHO-K1 cells were stimulated with forskolin (20 μM) and analyzed for cAMP expression after 30 min. The CB2 agonist WIN55, 212-2 was incubated at increasing concentrations 30 min prior to forskolin stimulation alone or in presence of 1 μM of the antagonists AM630 and the compound of Formula II.
FIG. 3. Confluentially growing CB2 receptor transfected […] CHO-K1 cells were stimulated with forskolin (20 μM) and analyzed for cAMP expression after 30 minutes. CB2 ligands were incubated at increasing concentrations 30 minutes prior to forskolin stimulation.
Cell-based Functional Bioassay Studies. […] Subsequently, further receptor biological studies were performed: i) to examine/assess the G-protein effects of the compound of Formula II upon CB2 receptor binding and ii) to test the compound of Formula II for anti-inflammatory effects.

T3 sequence (P34972 whole entry): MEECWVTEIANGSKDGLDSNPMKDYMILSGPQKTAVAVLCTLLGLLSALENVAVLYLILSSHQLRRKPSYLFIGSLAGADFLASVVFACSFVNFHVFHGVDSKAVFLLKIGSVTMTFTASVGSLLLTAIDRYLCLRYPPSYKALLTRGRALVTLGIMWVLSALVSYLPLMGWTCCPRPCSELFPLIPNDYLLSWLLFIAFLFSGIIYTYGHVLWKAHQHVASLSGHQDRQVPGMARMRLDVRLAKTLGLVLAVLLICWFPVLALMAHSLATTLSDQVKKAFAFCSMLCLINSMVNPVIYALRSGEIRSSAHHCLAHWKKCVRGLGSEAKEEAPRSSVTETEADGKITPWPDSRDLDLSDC
T2 sequence (P20272 whole entry): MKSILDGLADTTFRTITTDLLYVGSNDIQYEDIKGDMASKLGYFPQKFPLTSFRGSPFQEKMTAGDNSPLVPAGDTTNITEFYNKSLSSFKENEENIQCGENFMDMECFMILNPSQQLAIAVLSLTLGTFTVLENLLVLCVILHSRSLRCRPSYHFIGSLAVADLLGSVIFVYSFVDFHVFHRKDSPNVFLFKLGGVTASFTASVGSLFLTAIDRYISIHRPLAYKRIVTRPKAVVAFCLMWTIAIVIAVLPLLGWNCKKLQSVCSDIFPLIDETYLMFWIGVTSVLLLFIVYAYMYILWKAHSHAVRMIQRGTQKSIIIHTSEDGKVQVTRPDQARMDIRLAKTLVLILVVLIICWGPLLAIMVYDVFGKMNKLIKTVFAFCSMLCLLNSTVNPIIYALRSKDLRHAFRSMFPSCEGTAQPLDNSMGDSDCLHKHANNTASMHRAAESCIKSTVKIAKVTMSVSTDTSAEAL
T1 sequence (P47936 whole entry): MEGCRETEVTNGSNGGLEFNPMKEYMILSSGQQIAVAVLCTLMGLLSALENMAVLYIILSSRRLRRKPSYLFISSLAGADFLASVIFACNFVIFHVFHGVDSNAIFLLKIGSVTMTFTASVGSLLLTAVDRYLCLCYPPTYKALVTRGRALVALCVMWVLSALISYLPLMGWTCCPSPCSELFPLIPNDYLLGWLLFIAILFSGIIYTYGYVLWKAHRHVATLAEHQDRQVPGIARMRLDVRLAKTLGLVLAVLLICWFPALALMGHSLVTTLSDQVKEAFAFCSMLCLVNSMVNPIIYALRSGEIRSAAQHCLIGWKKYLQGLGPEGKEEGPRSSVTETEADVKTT

Take `N/C(=N\Cc1ccccc1)C(/N=N/c1ccccc1)C(=O)NCc1ccccc1` (centres unmarked) [Formula II]: the pKi at CB2 cannabinoid receptor was 7.50. The pKi at CB1 cannabinoid receptor was 5.38. In addition, on CB2 receptor, the “effect on Go signaling” value was “does not affect Go signaling”, the “effect on CB2 agonist WIN55,212-2 response (cAMP)” value is given as “inhibits the effect of WIN55,212-2; also recorded: antagonist like the known CB2 antagonist AM630 (but weaker)” and the “functional mode of ligand alone (cAMP)” value was “weak agonist at high concentration; also recorded: not an inverse agonist”. The “concentration at which compound becomes an agonist (cAMP)” value at CB2 receptor (FIG. 3, running text) was around 10 µM. The “concentration at which compound is a weak agonist (cAMP)” value on CB2 receptor (FIG. 3 legend) is on record as above 7 mM. In addition, at CB2 receptor (at concentrations up to low μM), the “impact on Gi-proteins” value is “does not have an impact on Gi-proteins”.

For the compound SR144528 [reference compound], the “functional mode of ligand alone (cAMP)” value on CB2 receptor is on record as “inverse agonist”.

For `COc1ccc(C(=O)c2c(C)n(CCN3CCOCC3)c3cc(I)ccc23)cc1` [AM630, reference compound], at CB2 receptor, the “effect on CB2 agonist WIN55,212-2 response (cAMP)” value is “inhibits the effect of WIN55,212-2” and the “functional mode of ligand alone (cAMP)” value is given as “inverse agonist”.
